Several values for one entry are separate records, joined by “and”; a condition that tells them apart may be missing. Identical values can stand only once.
How the values were obtained:
[1] = target: T1, human H4R N147W mutant (Homo sapiens, UniProt Q9H3N8, N147W); assay: TGFα shedding assay, H4R N147W mutant; assay type: cell-based; conditions: for EC50: EC50 (nM)
T1 construct: a mutant H4R (human, full-length, and untagged); expressed in transfected cells; host or cells: HEK293A
Description: (§1) The mutants were prepared using the primers listed in Supplementary Table 2. […] The chimeric Gαq/i1 subunit comprises the Gαq backbone and Gαi1-derived six-amino acid C-terminus and couples with Gi-coupled H4R but induces a Gq-dependent TGFα shedding response. After culturing for 1 day and incubating at 37 °C in a 5% CO2 incubator, the transfected cells were harvested by trypsinization, neutralized with Dulbecco’s modified Eagle’s medium containing 10% fetal calf serum (FCS) and penicillin–streptomycin, washed once with Hank’s balanced salt solution (HBSS) containing 5 mM of HEPES (pH 7.4), and resuspended in 6 mL of the HEPES-containing HBSS. The cell suspension was seeded into a 96-well plate at a volume of […] per well (typically, 48 wells per transfected cells) and incubated for 30 min in the CO2 incubator. Test compounds (10×, diluted in 0.01% BSA and 5 mM of HEPES-containing HBSS, […] volume) were added to duplicate wells and incubated for 1 h. After centrifugation, the conditioned medium ([…]) was transferred to an empty 96-well plate. AP reaction solution [10 mM of p-nitrophenylphosphate (p-NPP), 120 mM of Tris–HCl (pH 9.5), 40 mM of NaCl, and 10 mM of MgCl2] was dispensed into the cell culture plates and plates containing conditioned media ([…]). Absorbance was measured at 405 nm before and after a 1-h incubation period at 25 °C using a microplate reader (iMark™ Microplate Absorbance Reader; BioRad). Ligand-induced AP-TGFα release was calculated as previously described. The vehicle-treated AP-TGFα release signal was set as a baseline unless otherwise specified. AP-TGFα release signals were fitted with a four-parameter sigmoidal concentration-response curve, from which EC50 and Emax values were obtained, using GraphPad Prism 9 software (GraphPad Prism). Negative values of logarithmically transformed EC50 values (pEC50) were used to calculate the mean and standard error of independent experiments.
(§2) All functional study data were analyzed using Prism 9 (GraphPad) and are presented as mean ± standard error of the mean (SEM) of three independent experiments. Statistical analyses were performed using Prism 9 (GraphPad) with one-way analysis of variance followed by Dunnett’s post-hoc test. Values with p < 0.05 are considered statistically significant.

[2] = target: T2, human H4R D94A mutant (Homo sapiens, UniProt Q9H3N8, D94A); assay: TGFα shedding assay, H4R D94A mutant; assay type: cell-based
T2 construct: a mutant H4R (human, full-length, and untagged); expressed in transfected cells; host or cells: HEK293A
Description: as §1
(§3) All functional study data were analyzed using Prism 9 (GraphPad) and are presented as mean ± standard error of the mean (SEM) of three independent experiments. […]

[3] = target: H4R; conditions: read-out: binding affinity (Ki) for H4R; cited from earlier work
[4] = target: T3, human H4R Q347A mutant (Homo sapiens, UniProt Q9H3N8, Q347A); assay: TGFα shedding assay, H4R Q347A mutant; assay type: cell-based
T3 construct: a mutant H4R (human, full-length, and untagged); expressed in transfected cells; host or cells: HEK293A
Description: as §1, §2

[5] = target: T4, human H4R E182N mutant (Homo sapiens, UniProt Q9H3N8, E182N); assay: TGFα shedding assay, H4R E182N mutant; assay type: cell-based
T4 construct: a mutant H4R (human, full-length, and untagged); expressed in transfected cells; host or cells: HEK293A
Description: as §1, §3

[6] = target: T5, human wild-type H4R (Homo sapiens, UniProt Q9H3N8); assay: TGFα shedding assay, wild-type H4R; assay type: cell-based
T5 construct: a mutant H4R (human, full-length, and untagged); expressed in transfected cells; host or cells: HEK293A
Description: as §1, §2

[7] = target: T6, human H4R T99A mutant (Homo sapiens, UniProt Q9H3N8, T99A); assay: TGFα shedding assay, H4R T99A mutant; assay type: cell-based
T6 construct: a mutant H4R (human, full-length, and untagged); expressed in transfected cells; host or cells: HEK293A
Description: as §1, §2

[8] = target: T7, human H4R C98A mutant (Homo sapiens, UniProt Q9H3N8, C98A); assay: TGFα shedding assay, H4R C98A mutant; assay type: cell-based
T7 construct: a mutant H4R (human, full-length, and untagged); expressed in transfected cells; host or cells: HEK293A
Description: as §1, §2

[9] = Imetit (M) -5 (log concentration), raw replicate values

T2 sequence (Q9H3N8 whole entry D94A): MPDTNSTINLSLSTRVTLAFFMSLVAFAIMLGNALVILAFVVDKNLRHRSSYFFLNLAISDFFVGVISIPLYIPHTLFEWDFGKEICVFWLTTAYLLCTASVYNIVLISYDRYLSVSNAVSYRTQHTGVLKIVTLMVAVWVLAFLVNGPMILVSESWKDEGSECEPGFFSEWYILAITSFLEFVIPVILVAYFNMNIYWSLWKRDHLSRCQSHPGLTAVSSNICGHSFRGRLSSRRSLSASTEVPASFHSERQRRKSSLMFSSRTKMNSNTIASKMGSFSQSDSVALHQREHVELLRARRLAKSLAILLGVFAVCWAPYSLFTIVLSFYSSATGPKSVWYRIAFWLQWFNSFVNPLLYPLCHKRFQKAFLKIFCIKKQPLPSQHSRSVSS
T4 sequence (Q9H3N8 whole entry E182N): as the sequence (Q9H3N8 whole entry D94A) above, with A94D, E182N counted along it
T5 sequence (Q9H3N8 whole entry): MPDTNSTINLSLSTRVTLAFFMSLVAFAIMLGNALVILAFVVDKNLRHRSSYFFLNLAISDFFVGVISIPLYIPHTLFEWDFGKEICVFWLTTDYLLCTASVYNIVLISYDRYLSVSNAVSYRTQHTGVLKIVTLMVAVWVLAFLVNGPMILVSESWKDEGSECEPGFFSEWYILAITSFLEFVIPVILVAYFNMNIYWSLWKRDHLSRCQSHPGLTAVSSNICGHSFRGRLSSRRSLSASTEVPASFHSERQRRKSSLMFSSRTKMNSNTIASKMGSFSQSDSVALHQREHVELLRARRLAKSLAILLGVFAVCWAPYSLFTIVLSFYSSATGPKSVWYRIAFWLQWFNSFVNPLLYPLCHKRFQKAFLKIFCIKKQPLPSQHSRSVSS
T3 sequence (Q9H3N8 whole entry Q347A): as the sequence (Q9H3N8 whole entry D94A) above, with A94D, Q347A counted along it
T6 sequence (Q9H3N8 whole entry T99A): as the sequence (Q9H3N8 whole entry D94A) above, with A94D, T99A counted along it
T1 sequence (Q9H3N8 whole entry N147W): as the sequence (Q9H3N8 whole entry D94A) above, with A94D, N147W counted along it
T7 sequence (Q9H3N8 whole entry C98A): as the sequence (Q9H3N8 whole entry D94A) above, with A94D, C98A counted along it

## N=C(N)SCCc1cnc[nH]1 [Imetit, imetit]
[1]; N147W mutant
  EC50: 603 nM
[1]; N147W, single experiments, source data Figure 4e-f
  EC50: 569 nM and 612 nM and 627 nM
[1]; [9]
  Shedding assay response, N147W: 17.8239 and 17.9174 and 17.7465 and 15.1009 and 14.2938 and 15.4251 and 18.7186 and 19.6688 and 18.9313
[1]; N147W mutant, EC50 relative to WT
  fold of change: 20.2 fold
[1]; read-out: Emax (%) mean ± SEM
  Emax: 18.4 ± 1.29%
[2]
  EC50: > 10 µM
[2]; [9]
  Shedding assay response, D94A: -0.3449 and 0.03257 and -1.499 and 0.2405 and 1.217 and -0.1126 and 0.7155 and 3.933 and 12.3814
[3]
  Ki: 0.0027 µM
[4]; EC50 (nM), Q347A mutant
  EC50: 12.7 nM
[4]; [9]
  Shedding assay response, Q347A: 17.2563 and 18.9409 and 18.4053 and 16.608 and 19.8188 and 22.6245 and 22.4962 and 23.3465 and 23.6643
[4]; Q347A mutant, EC50 relative to WT
  fold of change: 0.4 fold
[4]; pEC50 mean ± SEM, Q347A mutant
  EC50: 12.3 nM
[4]; read-out: Emax (%) mean ± SEM
  Emax: 19.3 ± 1.1%
[5]
  EC50: > 10 µM
[5]; [9]
  Shedding assay response, E182N: -0.3367 and 1.68 and -1.08 and 4.253 and 4.399 and 3.645 and 9.053 and 3.546 and 4.747
[6]; EC50 (nM), WT H4R
  EC50: 29.9 nM
[6]; EC50 (nM), hH4R, single experiments (3 columns), source data Figure 4e-f
  EC50: 30.7 nM and 23 nM
[6]; [9]
  Shedding assay response, WT: 14.3865 and 12.6364 and 12.8296 and 15.366 and 17.4678 and 18.6444 and 14.3694 and 15.3398 and 17.1099
[6]; WT H4R, EC50 relative to WT
  fold of change: 1 fold
[6]; pEC50, hH4R, single experiments (3 columns), source data Figure 4e-f
  EC50: 35.8 nM and 30.7 nM
[6]; pEC50 mean ± SEM, WT H4R, three independent experiments
  EC50: 29.5 nM
[6]; read-out: Emax (%) mean ± SEM
  Emax: 14.9 ± 1.19%
[7]
  EC50: 0.076 µM
[7]; [9]
  Shedding assay response, T99A: 14.3742 and 14.7391 and 15.3687 and 10.9344 and 9.709 and 12.0103 and 13.6177 and 15.7879 and 16.7579
[7]; T99A mutant, EC50 relative to WT
  fold of change: 2.5 fold
[7]; read-out: Emax (%) mean ± SEM
  Emax: 13.7 ± 1.67%
[8]; C98A mutant
  EC50: 479 nM
[8]; C98A mutant, EC50 relative to WT
  fold of change: 16.3 fold
[8]; EC50 (nM), C98A mutant
  EC50: 486 nM
[8]; [9]
  Shedding assay response, C98A: 13.5967 and 12.9858 and 12.6952 and 16.5163 and 19.8944 and 18.7443 and 18.3535 and 16.3047 and 17.1057
[8]; read-out: Emax (%) mean ± SEM
  Emax: 17.1 ± 1.72%

From PMC10589313 (Nature Communications, 2023)
